US20210023089A1, “Compositions Useful for Treating Herpes Simplex Keratitis, and Methods Using Same” (priority 2013, published 2021)

Legend:
HSV-1 [1] = test: qRT-PCR of viral transcripts in HSV-1 infected hTCEpi cells; format: cell-based, HSV-1 (KOS strain); settings: MOI 0.1, 10 μM, 16 hpi
Experimental: (§1) The following strains of HSV-1 were used: KOS, ICPO-null, HFEM, and tsB7. Subconfluent monolayers of cells were grown in six-well plates. Drug treatments were administered 45 minutes prior to infection and continued for the entire duration of each experiment. Unless indicated otherwise, KU-55933 (Batch No. 5, 99.7% purity; Tocris Bioscience, Bristol, UK) was used at 10 μM final concentration, phosphonoacetic acid (PAA) at 400 μg/mL (Sigma-Aldrich, St. Louis, Mo.), and acyclovir at 50 μg/mL (Sigma-Aldrich). KU-55933 was dissolved in dimethyl sulfoxide (DMSO), and the final concentration of DMSO in both KU-55933 and mock treatment in the in vitro and the ex vivo experiments was 0.1%.
Viral genome replication and transcription were measured by quantitative PCR (qPCR). Total DNA and RNA from infected cells were isolated using the DNeasy Blood & Tissue Kit and the RNeasy Mini Kit, respectively (QIAGEN, Hilden, Germany). RNA was converted to cDNA using qScript (Quanta BioSciences, Gaithersburg, Md.). Real-time qPCR was performed with SYBR Green (Bio-Rad, Hercules, Calif.). […] Transcription of the three gene families was measured with primers for RL2 (ICPO), UL30 (DNA polymerase catalytic subunit), and UL44 (gC), with reference primers for the 18S ribosomal RNA (rRNA).

human corneas = format: cell-based
Experimental: (§2) Human corneas were obtained from the Lions Eye Bank of Delaware Valley. Rabbit corneas were excised from intact fresh eyeballs of young (8-12 weeks) albino rabbits (Pel-Freez Biologicals, Rogers, Ark.). Protocol (Alekseev et al., 2012, J Vis Exp 69:e3631) for ex vivo corneal culture, infection, and treatment was followed closely. Briefly, corneoscleral buttons were excised and rinsed in PBS containing 200 U/mL penicillin and 200 μg/mL streptomycin. The endothelial concavity was filled with culture medium containing 1% low melting temperature agarose. The corneas were cultured epithelial side up in MEM medium supplemented with nonessential amino acids (1×), 2 mM […], 200 U/mL penicillin, and 200 μg/mL streptomycin. The next day, they were infected with 1×10^4 plaque forming units (PFU)/cornea of strain KOS HSV-1 for 1 hour, rinsed, and overlaid with fresh medium. Drug treatments were administered at the same concentrations as for cultured cells. For KU-55933 bioavailability assessment, corneas were treated with bleomycin (200 μg/mL) for 1 hour. The epithelial cell layer was collected by scraping to isolate DNA or protein. […] Treatment toxicity was assessed by briefly staining the cornea with fluorescein (1% wt/vol in PBS) and imaging the epithelial defects with 464-nm wavelength blue light (LDP LLC, Carlstadt, N.J.).

ATM = target: T1, ATM (Homo sapiens, UniProt Q13315); test: pATM Western blot in bleomycin-damaged ex vivo human corneas (bioavailability); format: cell-based; settings: bleomycin 200 μg/mL 1 hour, KU-55933 10 μM 1 hour pretreatment
T1 construct: The epithelial layers were collected for protein lysates and analyzed by Western blot with antibodies against pATM (Ser1981) and total ATM; tissue Lions Eye Bank of Delaware Valley; host or cells: epithelial layer of explanted human corneas
Experimental: as §2, with “hour.” for “hour. The epithelial cell layer was collected by scraping to isolate DNA or protein.”
Standard protocol was followed for Western blot analysis. […] Protein concentrations were measured by bicinchoninic acid (BCA) assay. […]

HSV-1 [2] = test: Western blot of viral proteins in HSV-1 infected hTCEpi cells; format: cell-based, HSV-1 (KOS strain); settings: MOI 0.1, 10 μM, 16 hpi
Experimental: as §1
Standard protocol was followed for Western blot analysis. Cell lysates were collected in 200 μL Laemmli buffer, vortexed, and boiled at 95° C. for 5 minutes. Protein concentrations were measured by bicinchoninic acid (BCA) assay. SDS-PAGE was followed by transfer onto a polyvinylidene difluoride (PVDF) membrane, which was then blocked in 5% BSA. […]

HSV-1 [3] = test: Plaque assay of supernatants from HSV-1 infected HCE cells; format: cell-based, HSV-1 (KOS strain); settings: MOI 0.1, 10 μM, vs controls
Experimental: All cells were cultured at 37° C. and 5% CO2, and supplemented with 100 U/ml penicillin and 100 μg/ml streptomycin. Human corneal epithelial cells immortalized with hTERT (hTCEpi; Bahassi et al., 2008, Oncogene 27:3977-3985) were grown in complete KGM-2 medium. Human corneal epithelial cells immortalized with SV40 large T antigen (HCE; Araski-Sasaki et al., 1995, Invest. Ophthalmol. Visual Sci. 36:614-621), as well as African green monkey kidney fibroblasts (CV-1; Jensen et al., 1964, Proc. Natl. Acad. Sci. USA 52:53-59), were grown in DMEM medium supplemented with 10% FBS. KOS strain (Smith, Proc. Soc. Exp. Biol. Med. Soc. Exp. Biol. Med. 115:814-816) of HSV-1 was used in all infections. All viral stocks were titered on CV-1 monolayers.
Cells were grown in 6-well plates and used in experiments at […] confluence. Drug treatments were administered 45 min prior to infection and continued for the entire duration of each experiment. Unless indicated otherwise, Chk2 inhibitor II (>98% purity by HPLC) was used at 10 μM final concentration, and phosphonoacetic acid (PAA) at 400 μg/ml (both from Sigma-Aldrich, St. Louis, Mo.). Chk2 inhibitor II was dissolved in DMSO such that the final concentration of DMSO in both Chk2 inhibitor II and mock treatment was 0.1%. […]

T1 sequence (Q13315 whole entry): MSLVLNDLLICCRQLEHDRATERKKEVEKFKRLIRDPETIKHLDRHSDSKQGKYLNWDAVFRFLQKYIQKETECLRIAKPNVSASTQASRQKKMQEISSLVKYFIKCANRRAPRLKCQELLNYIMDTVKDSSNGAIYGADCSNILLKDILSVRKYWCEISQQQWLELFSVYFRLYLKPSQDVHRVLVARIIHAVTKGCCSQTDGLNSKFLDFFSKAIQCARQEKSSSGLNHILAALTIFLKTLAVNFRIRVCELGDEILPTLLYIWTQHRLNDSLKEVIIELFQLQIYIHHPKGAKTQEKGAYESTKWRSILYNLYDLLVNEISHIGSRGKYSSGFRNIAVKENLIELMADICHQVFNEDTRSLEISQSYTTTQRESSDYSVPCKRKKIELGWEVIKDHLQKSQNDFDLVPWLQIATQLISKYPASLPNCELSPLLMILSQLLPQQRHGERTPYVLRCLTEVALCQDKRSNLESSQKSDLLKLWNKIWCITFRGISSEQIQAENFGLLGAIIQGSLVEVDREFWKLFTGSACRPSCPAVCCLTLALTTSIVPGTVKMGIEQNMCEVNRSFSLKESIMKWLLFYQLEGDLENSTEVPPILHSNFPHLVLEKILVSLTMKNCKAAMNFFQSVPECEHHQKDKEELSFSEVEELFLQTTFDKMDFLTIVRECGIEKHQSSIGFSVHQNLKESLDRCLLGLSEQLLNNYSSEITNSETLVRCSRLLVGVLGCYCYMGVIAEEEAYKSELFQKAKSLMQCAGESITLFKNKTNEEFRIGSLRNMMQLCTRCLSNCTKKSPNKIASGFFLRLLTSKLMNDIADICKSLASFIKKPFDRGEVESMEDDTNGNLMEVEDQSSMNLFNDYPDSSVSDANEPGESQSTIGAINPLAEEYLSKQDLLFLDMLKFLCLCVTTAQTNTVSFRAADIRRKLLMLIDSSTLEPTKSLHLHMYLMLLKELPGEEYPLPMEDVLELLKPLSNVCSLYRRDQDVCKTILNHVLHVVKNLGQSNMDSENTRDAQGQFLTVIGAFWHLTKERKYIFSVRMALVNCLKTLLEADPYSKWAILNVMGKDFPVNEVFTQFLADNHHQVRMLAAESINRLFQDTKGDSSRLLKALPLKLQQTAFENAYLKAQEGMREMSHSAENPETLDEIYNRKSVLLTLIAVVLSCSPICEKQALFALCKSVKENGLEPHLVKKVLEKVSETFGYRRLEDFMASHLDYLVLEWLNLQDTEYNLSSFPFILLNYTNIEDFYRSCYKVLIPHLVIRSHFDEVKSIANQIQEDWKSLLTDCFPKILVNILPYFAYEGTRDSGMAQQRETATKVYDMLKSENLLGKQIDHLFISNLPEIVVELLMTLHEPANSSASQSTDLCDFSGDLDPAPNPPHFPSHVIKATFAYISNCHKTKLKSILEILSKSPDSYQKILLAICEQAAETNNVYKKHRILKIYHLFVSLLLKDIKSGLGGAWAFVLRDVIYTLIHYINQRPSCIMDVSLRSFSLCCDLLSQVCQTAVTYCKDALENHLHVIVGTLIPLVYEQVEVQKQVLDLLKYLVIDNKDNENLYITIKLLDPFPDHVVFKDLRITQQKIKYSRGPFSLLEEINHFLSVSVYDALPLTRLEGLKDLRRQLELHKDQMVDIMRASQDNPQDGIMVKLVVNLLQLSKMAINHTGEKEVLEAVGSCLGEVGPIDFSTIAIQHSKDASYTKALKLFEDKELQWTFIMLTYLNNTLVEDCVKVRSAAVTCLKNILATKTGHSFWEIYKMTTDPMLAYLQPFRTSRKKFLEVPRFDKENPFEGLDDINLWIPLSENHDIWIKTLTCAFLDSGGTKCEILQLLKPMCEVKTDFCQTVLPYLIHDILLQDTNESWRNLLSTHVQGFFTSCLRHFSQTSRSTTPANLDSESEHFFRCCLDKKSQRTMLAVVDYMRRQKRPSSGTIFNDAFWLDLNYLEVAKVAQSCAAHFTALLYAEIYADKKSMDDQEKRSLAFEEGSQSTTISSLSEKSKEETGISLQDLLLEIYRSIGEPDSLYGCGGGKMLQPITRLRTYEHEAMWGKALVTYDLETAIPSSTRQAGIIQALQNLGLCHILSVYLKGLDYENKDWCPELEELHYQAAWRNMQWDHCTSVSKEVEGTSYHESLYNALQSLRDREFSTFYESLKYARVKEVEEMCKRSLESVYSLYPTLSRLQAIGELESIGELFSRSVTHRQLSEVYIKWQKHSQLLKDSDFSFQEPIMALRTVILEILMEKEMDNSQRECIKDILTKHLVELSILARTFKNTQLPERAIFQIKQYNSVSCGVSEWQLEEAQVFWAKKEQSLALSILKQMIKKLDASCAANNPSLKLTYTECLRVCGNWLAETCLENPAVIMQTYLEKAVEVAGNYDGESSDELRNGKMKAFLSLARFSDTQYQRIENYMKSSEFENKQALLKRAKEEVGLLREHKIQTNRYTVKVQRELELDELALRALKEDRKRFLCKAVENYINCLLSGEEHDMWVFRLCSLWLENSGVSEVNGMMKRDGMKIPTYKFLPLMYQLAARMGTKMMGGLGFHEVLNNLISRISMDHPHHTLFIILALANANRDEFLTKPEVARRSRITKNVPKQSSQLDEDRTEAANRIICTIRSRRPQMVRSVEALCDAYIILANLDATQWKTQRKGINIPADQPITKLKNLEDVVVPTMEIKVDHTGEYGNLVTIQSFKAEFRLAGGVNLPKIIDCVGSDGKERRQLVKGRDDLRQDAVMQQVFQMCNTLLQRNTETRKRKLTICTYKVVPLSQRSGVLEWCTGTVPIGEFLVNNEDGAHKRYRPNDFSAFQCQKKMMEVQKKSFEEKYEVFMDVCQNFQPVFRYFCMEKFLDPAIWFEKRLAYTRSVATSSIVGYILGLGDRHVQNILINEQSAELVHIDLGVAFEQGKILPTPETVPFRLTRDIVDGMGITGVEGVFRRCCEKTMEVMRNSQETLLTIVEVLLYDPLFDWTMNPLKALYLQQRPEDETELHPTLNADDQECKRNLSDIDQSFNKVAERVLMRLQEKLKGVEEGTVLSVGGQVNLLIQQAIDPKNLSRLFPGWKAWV

Compound | levels of viral transcripts (ICP0, DNA polymerase, glycoprotein C) (HSV-1 [1]) | surface defects of explanted human corneas (human corneas) | pATM level in corneal epithelium (ATM) | levels of viral proteins (Western blot) (HSV-1 [2]) | generation of infectious viral particles (plaque assay) (HSV-1 [3])
O=c1cc(-c2cccc3c2Sc2ccccc2S3)oc(N2CCOCC2)c1 [KU-55933, 2-(morpholin-4-yl)-6-(thianthren-1-yl)-pyran-4-one] | reduced | did not develop any surface defects | completely eliminated | pronounced decrease | 
NC(=O)c1ccc2[nH]c(-c3ccc(Oc4ccc(Cl)cc4)cc3)nc2c1 [Chk2 inhibitor II, 2-(4-(4-chlorophenoxy)phenyl)-1H-benzimidazole-5-carboxamide] |  |  |  |  | reduction
